ChEMBL document CHEMBL1201862, “PubChem BioAssay data set” (2004)
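Five compound concentrations were applied to cells in 96-well plates for 48 hours; endpoints were derived by simple linear interpolation of the resulting dose-response curve. GI50 is the concentration that inhibits growth by half.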 The source made the active and inactive calls. Rule as the data show it: active = GI50 up to about 1.1 µM and inactive = higher.

Assays:
Assay in all cases: inhibition of tumour cell growth, NCI panel, 48 h
[1] = system: HOP-62
[2] = system: OVCAR-4
[3] = system: SN12C
[4] = system: RXF 393
[5] = system: TK-10
[6] = system: COLO 205
[7] = system: KM12
[8] = system: HT-29
[9] = system: A498
[10] = system: UO-31
[11] = system: LOX IMVI
[12] = system: CAKI-1
[13] = system: 786-0
[14] = system: SNB-75
[15] = system: UACC-62
[16] = system: NCI-H23
[17] = system: SK-OV-3
[18] = system: SF-268
[19] = system: MCF7

Measured: GI50

CC(=O)C1(O)CC2(c3ccccc3)C(=O)C1(c1ccccc1)C(c1ccccc1)=C2c1ccccc1 (stereo not given)
inactive: [1] > 100 µM | [2] 13.5 µM | [3] > 100 µM | [4] > 100 µM | [5] > 100 µM | [6] > 100 µM | [7] > 100 µM | [8] > 100 µM | [9] > 100 µM | [10] 58.5 µM | [11] > 100 µM | [12] > 100 µM | [13] > 100 µM | [14] 38.7 µM | [15] 79.4 µM | [16] 36.6 µM | [17] > 100 µM | [18] > 100 µM

COc1ccc(OC)c(/C(C)=N/NC(N)=S)c1
inactive: [1] > 100 µM | [2] > 100 µM | [3] > 100 µM | [4] > 100 µM | [5] > 100 µM | [6] > 100 µM | [7] > 100 µM | [8] > 100 µM | [9] > 100 µM | [10] > 100 µM | [11] > 100 µM | [12] > 100 µM | [13] > 100 µM | [14] > 100 µM | [15] > 100 µM | [16] > 100 µM | [17] > 100 µM | [18] > 100 µM

O=S(=O)(CC1=NC2C=CC=CC2N=C1)NCc1ccccc1 (stereo not given)
inactive: [1] > 100 µM | [2] 55.2 µM | [3] > 100 µM | [4] 12.9 µM | [5] > 100 µM | [6] > 100 µM | [7] > 100 µM | [8] > 100 µM | [9] > 100 µM | [11] > 100 µM | [12] > 100 µM | [13] > 100 µM | [14] > 100 µM | [15] > 100 µM | [16] > 100 µM | [17] > 100 µM | [18] > 100 µM

N=C(N)NS(=O)(=O)c1ccc(Nc2c3ccccc3nc3c(C(=O)Nc4ccc(S(N)(=O)=O)cc4)ccc(Cl)c23)cc1
inactive: [1] > 100 µM | [2] > 100 µM | [3] > 100 µM | [4] > 100 µM | [5] > 100 µM | [6] > 100 µM | [7] > 100 µM | [8] > 100 µM | [9] > 100 µM | [10] > 100 µM | [11] > 100 µM | [12] > 100 µM | [13] > 100 µM | [14] > 100 µM | [15] > 100 µM | [16] > 100 µM | [17] > 100 µM | [18] > 100 µM

CC(C)(C)C(=C[S+]([O-])/N=C/c1ccccc1)C(C)(C)C (stereo not given)
inactive: [1] 37.8 µM | [2] 21.4 µM | [3] 21.1 µM | [4] 26.7 µM | [5] > 100 µM | [6] 41.1 µM | [7] 44.6 µM | [8] 38.4 µM | [9] 36.4 µM | [10] 27.2 µM | [11] 18.8 µM | [12] 30 µM | [13] > 100 µM | [14] 16.4 µM | [16] 48 µM | [17] 26.6 µM | [18] 49.4 µM

CC1=NC2(C(=O)O)C3(C(=O)O)N=C(C)OC3(C(F)(F)F)C2(C(F)(F)F)O1 (stereo not given)
inactive: [1] > 100 µM | [2] > 100 µM | [3] > 100 µM | [4] > 100 µM | [5] > 100 µM | [6] > 100 µM | [7] > 100 µM | [8] > 100 µM | [9] > 100 µM | [10] > 100 µM | [11] > 100 µM | [12] > 100 µM | [13] > 100 µM | [14] > 100 µM | [15] > 100 µM | [16] > 100 µM | [17] > 100 µM | [18] > 100 µM

Cc1ccc(NC(=O)C(=O)CC(=O)c2ccccc2)cc1C
inactive: [1] > 100 µM | [2] > 100 µM | [3] > 100 µM | [4] > 100 µM | [5] > 100 µM | [6] > 100 µM | [7] 35.8 µM | [8] > 100 µM | [9] > 100 µM | [10] > 100 µM | [11] > 100 µM | [12] 56.8 µM | [13] > 100 µM | [14] > 100 µM | [15] 70.6 µM | [16] > 100 µM | [17] > 100 µM | [18] > 100 µM

CC1C2C=C(O)C(=O)C(C2=O)C1c1ccccc1 (stereo not given)
inactive: [1] > 100 µM | [2] > 100 µM | [4] > 100 µM | [5] > 100 µM | [6] > 100 µM | [7] > 100 µM | [8] > 100 µM | [9] > 100 µM | [10] > 100 µM | [11] > 100 µM | [12] > 100 µM | [13] > 100 µM | [14] 82.6 µM | [15] > 100 µM | [16] > 100 µM | [17] > 100 µM | [18] > 100 µM

Cc1ccccc1-n1c(N)c(-c2nc3ccccc3[nH]2)sc1=S
inactive: [1] 25 µM | [2] 28.8 µM | [3] 26.4 µM | [4] 30.1 µM | [5] 39.3 µM | [6] 22.6 µM | [7] 20.7 µM | [8] 19.6 µM | [9] 40.1 µM | [10] 23.8 µM | [11] 28.1 µM | [12] 37.8 µM | [13] 30.1 µM | [14] 29.4 µM | [15] 18.8 µM | [16] 23.3 µM | [17] 43.4 µM | [18] 29.6 µM

O=C(NCCCCN(CCCNC(=O)C(F)(F)F)Cc1ccccc1)C(F)(F)F
inactive: [1] > 100 µM | [2] > 100 µM | [3] > 100 µM | [19] > 100 µM | [4] > 100 µM | [5] > 100 µM | [6] > 100 µM | [7] > 100 µM | [8] > 100 µM | [9] > 100 µM | [10] > 100 µM | [13] > 100 µM | [14] > 100 µM | [15] > 100 µM | [16] > 100 µM | [17] > 100 µM | [18] > 100 µM

CN1CCCCC(C(O)(c2ccccc2)c2ccccc2)C1=O (stereo not given)
inactive: [1] > 100 µM | [2] > 100 µM | [3] > 100 µM | [4] 69 µM | [5] > 100 µM | [6] 56.2 µM | [7] > 100 µM | [8] > 100 µM | [9] > 100 µM | [10] > 100 µM | [11] > 100 µM | [13] > 100 µM | [14] > 100 µM | [15] > 100 µM | [16] > 100 µM | [17] > 100 µM | [18] > 100 µM

CC(CC=O)Nc1nn2c(=O)c3ccccc3nc2s1 (stereo not given)
inactive: [1] > 100 µM | [2] > 100 µM | [3] > 100 µM | [19] > 100 µM | [4] > 100 µM | [5] > 100 µM | [6] > 100 µM | [7] > 100 µM | [8] > 100 µM | [9] > 100 µM | [10] 18.2 µM | [11] > 100 µM | [12] > 100 µM | [13] > 100 µM | [14] > 100 µM | [15] 43.1 µM | [16] > 100 µM | [17] > 100 µM | [18] > 100 µM

CN(C)c1ccccc1CC(c1c[nH]c2ccccc12)c1c[nH]c2ccccc12
inactive: [1] 6.62 µM | [2] 9.06 µM | [3] 3.1 µM | [4] 7.91 µM | [5] 16.2 µM | [6] 2.82 µM | [7] 4.36 µM | [8] 5.38 µM | [9] 17.1 µM | [10] 10.9 µM | [11] 11.8 µM | [12] 4.94 µM | [13] 12.8 µM | [14] 10.3 µM | [15] 14.2 µM | [16] 6.85 µM | [17] 19.3 µM | [18] 14.8 µM

[O-][n+]1c2ccccc2[n+]([O-])c2cc(Br)ccc21
inactive: [1] 45 µM | [2] 18.9 µM | [3] 21.5 µM | [19] 11.3 µM | [4] 18.1 µM | [5] 26.1 µM | [6] 20.7 µM | [7] 12.6 µM | [8] 18.6 µM | [9] 17.9 µM | [10] 9.48 µM | [11] 2.99 µM | [12] 5.41 µM | [13] 10.1 µM | [14] 26.3 µM | [15] 18.3 µM | [16] 21.5 µM | [18] 13.7 µM

CC1=C(C(=O)Nc2ccccc2)C(c2cccc3ccccc23)C(C(=O)Nc2ccccc2)=C(C)N1
inactive: [1] 18.7 µM | [2] > 10 µM | [3] 18 µM | [4] 14.4 µM | [5] 31.5 µM | [6] 13.4 µM | [8] 18.8 µM | [9] 24.1 µM | [10] 21.6 µM | [11] 16.7 µM | [12] 15.6 µM | [13] 22.4 µM | [14] 15.6 µM | [15] 13.8 µM | [16] 21.7 µM | [17] 17.1 µM | [18] 21.5 µM
